Experiments:
[1] = Single-dose oral toxicity; type: in vivo, Beagle dogs
Description: (§1) Suzhou Zelgen Biopharmaceuticals Co., Ltd. Jaktinib Hydrochloride Tablets Chemical Drug Class 1 New Drug
During the trial, the general conditions of the […]
measured once on days 3, 7, and 13, respectively. After 14 days of observation, the […]
and blood biochemistry tests. All rats were euthanized for gross anatomy. […]
after drug administration. […] During the […]
biochemistry tests were performed on days 2 and 15. After 14 days of observation, all dogs were anesthetized and euthanized for gross anatomy. Blood samples were […]
administration in ZG0128 dose groups. LC-MS/MS was used to measure the […]
AUClast, Cmax, Tmax, and other toxicokinetic parameters.

[2] = Metabolic stability in liver microsomes; type: in vitro ADME, dog
Description: The metabolic stability of ZG0128 (the dihydrochloride monohydrate of ZG0163) was evaluated using human, monkey, dog, rat, and mouse liver microsomes as the in vitro models. The percentages of residues for ZG0128 after incubating in human, monkey, dog, rat, and mouse liver microsomes for 60 minutes was 55.5%, 63.1%, 67.1%, 80.3%, and 79.0%, respectively. The CLint values of in vivo clearance were calculated to be 24.1, 21.6, 33.4, 10.7, 26.0 mL/min/kg, respectively. Thus its was speculated that ZG0128 was a medium clearance drug in humans, monkeys, and mice, a high clearance drug in dogs, and a low clearance drug in rats.
Using UPLC-UV/Q-TOF MS, the potential metabolites of ZG0128 in various liver microsomes (human, monkey, dog, rat and mouse liver microsomes) incubation systems were identified and the metabolic pathways of ZG0128 were speculated. The main metabolite of ZG0128 in above five types of liver microsomes were primary alcohol metabolite formed by morpholine ring-opening (M3). […]

[3] = General physicochemical properties
Source text: as §1
Table 5. General physicochemical properties of Jaktinib hydrochloride […]
Appearance Yellow to orange crystalline powder; Odorless; Bitter taste […]
methylpyrrolidone; soluble in N, N-dimethyl formamide; […]
acetonitrile, dioxane, tert-butyl methyl ether or water
Jaktinib dihydrochloride monohydrate is a crystalline solid
Crystal Form containing two molecules of hydrogen chloride and one molecule of water of crystallization, with its crystal form being polymorph

[4] = Estimate of human equivalent and starting dose from animal NOAEL; conditions: for maximum safe starting dose in human: safety factor 10; for MRSD: safety factor 10, 60 kg
Description: The human equivalent doses (HED) for the above tests were 9 mg/kg and 5 mg/kg, respectively (Table 9). According to the "Guidance for Estimating the Maximum Recommended Dose in Initial Clinical Trials for Therapeutics in Adult Healthy Volunteers" issued by CFDA and a safety factor of 10, the maximum safe starting doses for the first dose in human were calculated as about 50 mg and 30 mg, respectively.
The single starting dose of this study was set to 25 mg, while the highest dose was set to 400 mg. The 400 mg dose would not be further increased even it was […]
Animal Test Anima Dosage HNSTD HED MRSD […]
Toxicity Test 61.0/oral gavage in Beagle Dogs 196.2/oral gavage a The safety factor was 10, while the human body weight was calculated as 60 kg. […]

[5] = PK, single intravenous dose; type: in vivo, beagles; conditions: 12.2 mg ZG0128 (1.22 mg/kg)
Description: as §1
Pharmacokinetics of single dose intravenous administration in beagles.
After intravenous administration of 12.2 mg ZG0128 (the average weight of the beagles was about 10 kg, so the dose given equals to 1.22 mg/kg ZG0128), ZG0163 […]
AUC0-t was 70.1% of that of the original drug.
Pharmacokinetics of single-dose intragastric administration.
The average Tmax of ZG0163 was 2.0 h after a single-dose intragastric administration of 1, 2, and 4 ZG0128 tablets (corresponding to 61, 122, and 244 […]
mg/ZG0128). […] The plasma […]
exposure AUC0-t was 459, 948, and 1728 ng•h/mL (mean) and the average plasma […]
There were large individual differences in plasma exposure AUC0-t in dogs. The pharmacokinetic differences between genders could not be determined. Within the range of 61-244 mg, the AUC0-t of ZG0163 increased proportionally with the increasing dosage. The average Tmax of metabolite ZG0245 was 2.0 h. The plasma exposure of metabolite ZG0245 was roughly 2.16 times

[6] = Accumulated excretion recovery in urine and feces; type: in vivo, human; conditions: 200 mg jaktinib fasted
Description: For MAD cohorts, blood samples were collected at 0, 0.25, 0.5, 1, 1.5, 2, 3, 4, 5, 6, 8 and 12 h on day 1; 0 h on day 2, 3, 4, 6 and 7; 0, 0.25, 0.5, 1, 1.5, 2, 3, 4, 5, 6, 8, 12, 24, 36 and 48 h on day 10. In food effect cohort, blood samples were collected at 0, 0.25, 0.5, 1, 1.5, 2, 3, 4, 5, 6, 8, 12, 24, 36, 48, 72, 96 and 120 h in period one of group A; 0, 0.25, 0.5, 1, 1.5, 2, 3, 4, 5, 6, 8, 12, 24, 36 and 48 h in period two of group A and the two periods of group B. Blood samples were centrifuged at 3,000 rpm for 10 min at 2–8 °C and stored at -80 °C until liquid chromatography-mass spectrophotometry (LC-MS/MS) analysis. Urine and feces samples were collected in period one of group A of food effect cohort with the intervals 0, 0–6, 6–12, 12–24, 24–48, 48–72, 72–96, 96–120 and 0–120 h, respectively.
Urine and feces PK parameter was accumulated excretion recovery ratio from time zero to 120 h (Fe0–120h).

In the case of `Cl.Cl.O.[2H]C1([2H])COCC([2H])([2H])N1c1ccc(Nc2nccc(-c3ccc(C(=O)NCC#N)cc3)n2)cc1` [ZG0128, Jaktinib Dihydrochloride Monohydrate], the “maximum tolerated dose (MTD)” value ([1]; single oral dose) was 1220 mg/kg, the “CLint of in vivo clearance” value [2] was 33.4 mL/min/kg and the “percentage of residue after 60 minutes” value [2] was 67.1%. For the same compound, the Hygroscopicity [3] was “Slightly hygroscopic”, the Solubility ([3]; 0.1 mol/L hydrochloric acid) was “slightly soluble” and the Solubility ([3]; dimethyl sulfoxide) was “freely soluble”. For the same compound, the Solubility ([3]; ethanol) was “slightly soluble in ethanol”, the Solubility ([3]; methanol) was “slightly soluble” and the Solubility ([3]; water) was “practically insoluble”.
With Jaktinib the AUC0-t ([1]; single oral 366 mg/kg ZG0128) was 10215 ± 10044 ng/mL, the AUC0-t ([1]; single oral 1220 mg/kg ZG0128) was 19752 ± 9998 ng/mL and the “human equivalent dose (HED)” value ([4]; from 26-week rat NOAEL) was 5 mg/kg. The “human equivalent dose (HED)” value ([4]; from 28-day Beagle dog NOAEL) was 9 mg/kg, the “maximum safe starting dose in human” value ([4]; from dog NOAEL) was “about 50 mg” and the MRSD ([4]; from dog NOAEL) was 54 mg/day. For the same compound, the “maximum safe starting dose in human” value ([4]; from rat NOAEL) was roughly 30 mg, the MRSD ([4]; from rat NOAEL) was 30 mg/day and the “plasma clearance CL” value [5] was 49.3 mL/min/kg. For the same compound, the “volume of distribution Vss” value [5] was 3.49 L/kg, the “Fe0–120h in urine and feces, total of jaktinib and metabolites” value [6] was 19.478% and the “Feces-Fe0–120h, total of jaktinib and metabolites” value [6] was 15.350%. For the same compound, the “Urine-Fe0–120h, total of jaktinib and metabolites” value [6] was 4.128%, the “Feces-Fe0–120h, geometric mean” value ([6]; n = 6) was 12.681% and the “Total Fe0–120h (urine and feces)” value ([6]; n = 6) was 12.813%. The “Urine-Fe0–120h, geometric mean” value ([6]; n = 6) was 0.132%.

— PMC7849180 (Frontiers in Pharmacology, 2020)
